This passage reports Ki results from ChEMBL document CHEMBL1147156, “Structure-based design and synthesis of N(omega)-nitro-L-arginine-containing peptidomimetics as selective inhibitors of neuronal nitric oxide synthase. Displacement of the heme structural water” (J Med Chem, 2007).

Each structure is given as a SMILES string.

Biological target in one experiment: not listed separately
Kind of experiment: Inhibition of bovine recombinant neuronal NOS by hemoglobin capture assay. Also on record: species or system Bos taurus.
In general, Ki refers to the equilibrium dissociation constant of an inhibitor or competing ligand from its target. Take `NC(=O)[C@@H]1C[C@@H](NC(=O)[C@@H](N)CCC/N=C(\N)N[N+](=O)[O-])CN1`: the Ki amounted to 0.33 µM.

In the case of `N=C(NCCC[C@H](N)CN(N)CCN)N[N+](=O)[O-]`, the Ki stood at 0.56 µM.

For the compound `N=C(NCCC[C@H](N)CN(O)CCN)N[N+](=O)[O-]`, the Ki was determined as 0.12 µM.

For the compound `N=C(NCCC[C@H](N)C(=O)N(O)[C@H]1CN[C@H](C(N)=O)C1)N[N+](=O)[O-]`, the Ki was determined as 0.31 µM.

The target of another experiment is T1, Nitric oxide synthase, inducible (Mus musculus, UniProt P29477).
T1 sequence (P29477 whole entry): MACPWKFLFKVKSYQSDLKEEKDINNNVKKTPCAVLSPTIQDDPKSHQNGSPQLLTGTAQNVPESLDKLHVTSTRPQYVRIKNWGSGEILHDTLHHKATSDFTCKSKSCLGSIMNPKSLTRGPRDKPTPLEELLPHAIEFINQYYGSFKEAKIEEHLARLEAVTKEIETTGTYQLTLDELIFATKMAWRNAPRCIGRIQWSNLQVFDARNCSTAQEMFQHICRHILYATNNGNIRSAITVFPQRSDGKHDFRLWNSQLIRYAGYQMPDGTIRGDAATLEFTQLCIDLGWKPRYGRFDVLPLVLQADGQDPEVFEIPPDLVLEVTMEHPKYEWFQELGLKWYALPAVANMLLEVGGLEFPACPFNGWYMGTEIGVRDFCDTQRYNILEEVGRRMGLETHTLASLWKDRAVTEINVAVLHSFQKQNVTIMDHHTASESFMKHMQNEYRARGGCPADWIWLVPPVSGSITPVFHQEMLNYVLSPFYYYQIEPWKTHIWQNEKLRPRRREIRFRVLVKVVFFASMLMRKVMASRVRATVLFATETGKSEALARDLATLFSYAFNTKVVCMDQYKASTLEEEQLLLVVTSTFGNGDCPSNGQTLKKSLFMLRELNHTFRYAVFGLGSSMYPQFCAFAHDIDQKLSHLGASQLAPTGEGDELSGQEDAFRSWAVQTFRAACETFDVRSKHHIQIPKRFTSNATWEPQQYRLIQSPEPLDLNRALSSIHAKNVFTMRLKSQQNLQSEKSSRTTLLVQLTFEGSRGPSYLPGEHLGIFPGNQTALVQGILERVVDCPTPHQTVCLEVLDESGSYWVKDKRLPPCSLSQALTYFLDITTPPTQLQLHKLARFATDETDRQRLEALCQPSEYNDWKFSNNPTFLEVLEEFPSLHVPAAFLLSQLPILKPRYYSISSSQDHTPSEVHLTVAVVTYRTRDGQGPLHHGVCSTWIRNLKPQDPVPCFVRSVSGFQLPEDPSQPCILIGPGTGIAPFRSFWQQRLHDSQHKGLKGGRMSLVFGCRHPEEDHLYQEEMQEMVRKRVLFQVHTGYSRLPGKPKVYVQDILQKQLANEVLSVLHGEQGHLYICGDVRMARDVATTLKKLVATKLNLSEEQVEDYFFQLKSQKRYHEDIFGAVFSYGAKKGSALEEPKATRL
The experiment in a line: Inhibition of mouse recombinant inducible NOS by hemoglobin capture assay.
For the compound `N=C(NCCC[C@H](N)CN(N)CCN)N[N+](=O)[O-]`, the Ki came out at 37 µM.

Turning to `N=C(NCCC[C@H](N)CN(O)CCN)N[N+](=O)[O-]`, the Ki was 16 µM.

`N=C(NCCC[C@H](N)C(=O)N(O)[C@H]1CN[C@H](C(N)=O)C1)N[N+](=O)[O-]`: the Ki turned out to be 16 µM.

For the compound `N=C(NCCC[C@H](N)C(=O)O)N[N+](=O)[O-]` [NITROARGININE], the inhibition constant Ki amounted to 4.28 µM.

The target in the next experiment is T2, Nitric oxide synthase 3 (Bos taurus, UniProt P29473).
T2 sequence (P29473 whole entry): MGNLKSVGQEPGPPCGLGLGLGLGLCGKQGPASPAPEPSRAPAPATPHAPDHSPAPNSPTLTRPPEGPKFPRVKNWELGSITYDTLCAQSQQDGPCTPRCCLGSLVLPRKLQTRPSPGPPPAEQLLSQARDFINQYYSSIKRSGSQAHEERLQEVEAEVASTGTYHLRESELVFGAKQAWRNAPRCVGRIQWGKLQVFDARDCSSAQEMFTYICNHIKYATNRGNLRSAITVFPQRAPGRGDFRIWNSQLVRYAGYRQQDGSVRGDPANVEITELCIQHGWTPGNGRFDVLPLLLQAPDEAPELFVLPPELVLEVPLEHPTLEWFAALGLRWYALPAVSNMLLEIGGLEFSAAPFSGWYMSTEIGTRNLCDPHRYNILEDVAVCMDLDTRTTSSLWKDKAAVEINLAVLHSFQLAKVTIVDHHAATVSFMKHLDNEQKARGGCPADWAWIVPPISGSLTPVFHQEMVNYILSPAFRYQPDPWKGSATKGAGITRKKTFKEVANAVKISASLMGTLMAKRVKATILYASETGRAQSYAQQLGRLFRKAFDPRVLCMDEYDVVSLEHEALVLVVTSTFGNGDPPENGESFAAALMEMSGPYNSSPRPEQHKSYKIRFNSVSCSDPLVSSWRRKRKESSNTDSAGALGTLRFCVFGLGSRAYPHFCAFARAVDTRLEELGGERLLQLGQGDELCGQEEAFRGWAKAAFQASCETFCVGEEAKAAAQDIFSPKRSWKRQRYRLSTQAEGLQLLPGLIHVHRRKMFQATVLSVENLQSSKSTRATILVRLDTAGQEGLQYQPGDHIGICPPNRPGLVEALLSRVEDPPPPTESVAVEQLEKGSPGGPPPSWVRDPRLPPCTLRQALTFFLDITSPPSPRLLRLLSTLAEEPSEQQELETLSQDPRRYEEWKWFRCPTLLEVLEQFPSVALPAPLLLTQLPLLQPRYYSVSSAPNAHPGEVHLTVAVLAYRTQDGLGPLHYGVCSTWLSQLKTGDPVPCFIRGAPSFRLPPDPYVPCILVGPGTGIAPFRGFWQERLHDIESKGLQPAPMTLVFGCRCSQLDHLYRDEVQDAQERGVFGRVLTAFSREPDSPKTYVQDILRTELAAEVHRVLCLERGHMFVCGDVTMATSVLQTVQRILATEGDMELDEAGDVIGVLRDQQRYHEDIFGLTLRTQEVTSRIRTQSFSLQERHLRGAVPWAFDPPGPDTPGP
Kind of experiment: Inhibition of bovine recombinant endothelial NOS by hemoglobin capture assay.
For `N=C(NCCC[C@H](N)CN(N)CCN)N[N+](=O)[O-]`, the Ki worked out at 103 µM.

In the case of `N=C(NCCC[C@H](N)CN(O)CCN)N[N+](=O)[O-]`, the Ki stood at 73 µM.

Regarding `N=C(NCCC[C@H](N)C(=O)N(O)[C@H]1CN[C@H](C(N)=O)C1)N[N+](=O)[O-]`, the inhibitory constant (Ki) worked out at 35 µM.
